Data as given in patent publication US9920039B2, “1,2,4-Oxadiazol compounds active against gram-positive pathogens” (UNIVERSITÀ DEGLI STUDI DI MILANO—BICOCCA, priority 2013, dated 2018).
In brackets after ≈: the same amount, converted by molar mass. Where two headings read alike, the source gives them in different places.

Experiments:
[1] = test system: MRSA clinical strain F511; assay: MIC by broth microdilution (CLSI); type: cell-based, Staphylococcus aureus
Source text: (§1) Several well characterized for their antibiotic-susceptibility phenotype Staphylococcus aureus isolates were used for the determination of the in vitro antibacterial activity of the studied compounds. In particular, S. aureus ATCC 29213 reference standard strain and S. aureus M923 (collection strain) were used as MSSA strains. Among MRSA, S. aureus MU50 (ATCC 700699) reference standard strain and two collection strains (433 and F511) were used for susceptibility assays.
(§2) The in vitro antibacterial activity of the new agents was studied by determining their minimum inhibitory concentrations (MICs) by means of the broth microdilution method according to the Clinical and Laboratory Standards Institute (CLSI) guidelines.[16] Briefly, serial 2-fold dilutions of each compound were made using the Cation adjusted Mueller-Hinton broth (CAMHB) in microtitre plates with 96 wells. Dimethyl sulfoxide (DMSO) was used as solvent for all the synthesized compounds. An equal volume of the bacterial inoculum (1×10^6 CFU/mL) was added to each well on the microtitre plate containing 0.05 mL of the serial antibiotic dilutions. The microtitre plate was then incubated at 37° C. for 18-24 h after which each well was analysed for the presence of bacterial growth. The MIC was defined as the lowest concentration of antimicrobial agent able to cause inhibition of bacterial growth as shown by the lack of turbidity of the culture medium. […] Final DMSO concentrations were also taken into account in all the biological assays.
(§3) The antimicrobial activities, summarized in Table 2, were determined by the “gold standard” method of broth microdilution, as recommended by the Clinical Laboratory Standards Institute (CLSI) (See the Experimental Section). […] In detail, the bacterial strains were tested: Staphylococcus aureus ATCC 29213, a clinical strain of methicillin-susceptible S. aureus (M923), S. aureus MU50 (methicillin-resistant—MRSA), and two methicillin-resistant clinical strains, 433 and F511.
(§4) The antimicrobial activities, summarized in Table 3, were determined by the “gold standard” method of broth microdilution, as recommended by the Clinical Laboratory Standards Institute (CLSI) (See the Experimental Section). The minimum inhibitory concentration (MIC) values were expressed in μg/mL. […] In detail, the tested bacterial strains were: Staphylococcus aureus ATCC 29213, a clinical strain of methicillin-susceptible S. aureus (M923), S. aureus MU50 (methicillin-resistant—MRSA) strain, and two methicillin-resistant clinical strains, 433 and F511.

[2] = test system: methicillin-susceptible S. aureus (M923); assay: MIC by broth microdilution (CLSI); type: cell-based, Staphylococcus aureus; settings: MSSA M923
Source text: as §1, §2, §3, §4

MRSA clinical strain 433 = assay: MIC by broth microdilution (CLSI); type: cell-based, Staphylococcus aureus; settings: MRSA 433
Source text: as §1, §2, §3, §4

[3] = test system: S. aureus MU50 (ATCC 700699), methicillin-resistant (MRSA); assay: MIC by broth microdilution (CLSI); type: cell-based, Staphylococcus aureus
Source text: as §1, §2, §3, §4

[4] = test system: Staphylococcus aureus ATCC 29213; assay: MIC by broth microdilution (CLSI); type: cell-based; settings: ATCC 29213
Source text: as §1, §2, §3, §4

[5] = test system: 12 MRSE all LZD sensitive; assay: MIC on strain panel (Table 4); type: cell-based, Staphylococcus epidermidis
Source text: as §2

[6] = test system: 6 ATCC (4MSSA, 2 MRSA)plus45 MRSA all LZD sensitive; assay: MIC on strain panel (Table 4); type: cell-based, Staphylococcus aureus; settings: 6 ATCC plus 45 MRSA; for MIC-range: tested range ≤0.06 - >128
Source text: as §2

[7] = Staphylococcus aureus, racemic mixture, Table 2, read-out: MIC
[8] = Staphylococcus aureus, ATCC29213, racemic mixture, Table 2, read-out: MIC
[9] = Staphylococcus aureus, racemic form, Table 3, read-out: MIC
[10] = Staphylococcus aureus, ATCC29213, racemic form, Table 3, read-out: MIC

Structure (SMILES)	MIC [1, 7] [µg/mL]	MIC [2, 7] [µg/mL]	MIC (MRSA clinical strain 433; [7]) [µg/mL]	MIC [3, 7] [µg/mL]	MIC [4, 8] [µg/mL]	melting point [°C]	other results
Cc1noc(-c2ccc(N3CC(CI)OC3=O)cc2)n1 (racemic) [Compound A1a, 3-(4′-(3″-methyl-1,2,4-oxadiazol-5″-yl)-phenyl)-5-(iodomethyl)-oxazolidin-2-one]	50 (≈ 130 µM)	> 50	25 (≈ 64.9 µM)	50 (≈ 130 µM)	> 50	145 to 147	
Cc1noc(-c2ccc(N3CC(CI)OC3=O)cc2F)n1 (racemic) [Compound A1b, 3-(3′-fluoro-4′-(3″-methyl-1,2,4-oxadiazol-5″-yl)-phenyl)-5-(iodomethyl)-oxazolidin-2-one]	> 50	> 50	50 (≈ 124 µM)	50 (≈ 124 µM)	> 50	148 to 149	
Cc1noc(-c2ccc(N3CC(CN=[N+]=[N-])OC3=O)cc2)n1 (racemic) [Compound A2a, 3-(4′-(3″-methyl-1,2,4-oxadiazol-5-yl)-phenyl)-5-(azidometil)-oxazolidin-2-one]	> 50	> 50	> 50	> 50	> 50	133.9 to 135	
Cc1noc(-c2ccc(N3CC(CN=[N+]=[N-])OC3=O)cc2F)n1 (racemic) [Compound A2b, 3-(3′-fluoro-4′-(3″-methyl-1,2,4-oxadiazol-5-yl)-phenyl)-5-(azidometil)-oxazolidin-2-one]	> 50	> 50	> 50	> 50	> 50	126.2 to 127.7	
CC(=O)NCC1CN(c2ccc(-c3nc(C)no3)c(F)c2)C(=O)O1 (racemic) [Compound A3b, 3-(3′-fluoro-4′-(3″-methyl-1,2,4-oxadiazol-5-yl)-phenyl)-5-(N-acetylaminomethyl)-oxazolidin-2-one]	12.5 (≈ 37.4 µM)	6.25 (≈ 18.7 µM)	1.6 (≈ 4.79 µM)	6.25 (≈ 18.7 µM)	12.5 (≈ 37.4 µM)	184 to 186	
CC(=S)NCC1CN(c2ccc(-c3nc(C)no3)cc2)C(=O)O1 (racemic) [Compound A4a, 3-(4′-(3″-methyl-1,2,4-oxadiazol-5-yl)-phenyl)-5-(N-thioacetylaminomethyl)-oxazolidin-2-one]	1.6 (≈ 4.81 µM)	1.6 (≈ 4.81 µM)	1.6 (≈ 4.81 µM)	≤ 0.4	3.13 (≈ 9.42 µM)		
Cc1noc(-c2ccc(N3CC(Cn4cccn4)OC3=O)cc2)n1 (racemic) [Compound A5a]	> 50	> 50	> 50	> 50	> 50		
Cc1noc(-c2ccc(N3CC(Cn4cccn4)OC3=O)cc2F)n1 (racemic) [Compound A5b]	> 50	> 50	> 50	> 50	> 50		
Cc1noc(-c2ccc(N3CC(Cn4ccnc4)OC3=O)cc2)n1 (racemic) [Compound A6a]	> 50	> 50	> 50	> 50	> 50		
Cc1noc(-c2ccc(N3CC(Cn4ccnc4)OC3=O)cc2F)n1 (racemic) [Compound A6b]	> 50	> 50	> 50	> 50	> 50		
Cc1noc(-c2ccc(N3CC(Cn4cncn4)OC3=O)cc2)n1 (racemic) [Compound A7a]	> 50	> 50	> 50	> 50	> 50		
Cc1noc(-c2ccc(N3CC(Cn4cncn4)OC3=O)cc2F)n1 (racemic) [Compound A7b]	> 50	> 50	> 50	> 50	> 50		
Cc1noc(-c2ccc(N3CC(Cn4ccnn4)OC3=O)cc2)n1 (racemic) [Compound B1a]						208 to 210	MIC [1, 9]: 12.5 µg/mL (≈ 38.3 µM); MIC [2, 9]: 25 µg/mL (≈ 76.6 µM); MIC (MRSA clinical strain 433; [9]): 12.5 µg/mL (≈ 38.3 µM); MIC [3, 9]: 3.12 µg/mL (≈ 9.58 µM); MIC [4, 10]: 25 µg/mL (≈ 76.6 µM)
Cc1noc(-c2ccc(N3CC(Cn4ccnn4)OC3=O)cc2F)n1 (racemic) [Compound B1b]						176.2 to 177.8	MIC [1, 9]: 12.5 µg/mL (≈ 36.3 µM); MIC [2, 9]: 25 µg/mL (≈ 72.6 µM); MIC (MRSA clinical strain 433; [9]): 6.25 µg/mL (≈ 18.2 µM); MIC [3, 9]: 1.6 µg/mL (≈ 4.65 µM); MIC [4, 10]: 25 µg/mL (≈ 72.6 µM)
Cc1noc(-c2ccc(N3CC(CN=C=S)OC3=O)cc2)n1 (racemic) [Compound B2a]							MIC [1, 9]: 50 µg/mL (≈ 158 µM); MIC [2, 9]: > 50 µg/mL; MIC (MRSA clinical strain 433; [9]): > 50 µg/mL; MIC [3, 9]: > 50 µg/mL; MIC [4, 10]: > 50 µg/mL
Cc1noc(-c2ccc(N3CC(CN=C=S)OC3=O)cc2F)n1 (racemic) [Compound B2b]							MIC [1, 9]: > 50 µg/mL; MIC [2, 9]: > 50 µg/mL; MIC (MRSA clinical strain 433; [9]): > 50 µg/mL; MIC [3, 9]: > 50 µg/mL; MIC [4, 10]: > 50 µg/mL
Cc1noc(-c2ccc(N3CC(CNC(N)=S)OC3=O)cc2)n1 (racemic) [Compound B3a]							MIC ([1]; racemic form, Table 3): >50 µg/mL; MIC ([2]; racemic form, Table 3): >50 µg/mL; MIC (MRSA clinical strain 433; racemic form, Table 3): >50 µg/mL; MIC ([3]; racemic form, Table 3): >50 µg/mL; MIC ([4]; racemic form, Table 3): >50 µg/mL
Cc1noc(-c2ccc(N3CC(CNC(N)=S)OC3=O)cc2F)n1 (racemic) [Compound B3b]							MIC ([1]; racemic form, Table 3): >50 µg/mL; MIC ([2]; racemic form, Table 3): >50 µg/mL; MIC (MRSA clinical strain 433; racemic form, Table 3): >50 µg/mL; MIC ([3]; racemic form, Table 3): >50 µg/mL; MIC ([4]; racemic form, Table 3): >50 µg/mL
CNC(=S)NCC1CN(c2ccc(-c3nc(C)no3)cc2)C(=O)O1 (racemic) [Compound B4a, 1-((3-(4-(3-methyl-1,2,4-oxadiazol-5-yl)phenyl)-oxazolidin-2-one-5-yl)methyl)-3-methylthiourea]						189.4 to 191.8	MIC50 ([5]; Staphylococcus epidermidis, read-out: MIC50): 64 µg/mL (≈ 184 µM); MIC90 ([5]; Staphylococcus epidermidis, read-out: MIC90): > 128 µg/mL; MIC [1, 9]: 6.25 µg/mL (≈ 18 µM); MIC [2, 9]: 6.25 µg/mL (≈ 18 µM); MIC (MRSA clinical strain 433; [9]): 3.12 µg/mL (≈ 9 µM); MIC [3, 9]: 1.6 µg/mL (≈ 4.61 µM); MIC-range [6]: 1 to 16 µg/mL; MIC50 ([6]; Staphylococcus aureus, read-out: MIC50): 8 µg/mL; MIC90 ([6]; Staphylococcus aureus, read-out: MIC90): 16 µg/mL; MIC [4, 10]: 6.25 µg/mL (≈ 18 µM)
CC(=O)NCC1CN(c2ccc(-c3nc(C)no3)cc2)C(=O)O1 (centres unmarked) [Compound A3a, 3-(4′-(3″-methyl-1,2,4-oxadiazol-5-yl)-phenyl)-5-(N-acetylaminomethyl)-oxazolidin-2-one]	12.5 (≈ 39.5 µM)	6.25 (≈ 19.8 µM)	1.6 (≈ 5.06 µM)	6.25 (≈ 19.8 µM)	12.5 (≈ 39.5 µM)	214 to 216	
CNC(=S)NC[C@@H]1CN(c2ccc(-c3nc(C)no3)cc2)C(=O)O1 [Compound B4aR]							MIC50 [5]: >128 µg/mL; MIC90 [5]: >128 µg/mL; MIC range [5]: >128 µg/mL; MIC50 [6]: >128 µg/mL; MIC90 [6]: >128 µg/mL
CNC(=S)NC[C@H]1CN(c2ccc(-c3nc(C)no3)cc2)C(=O)O1 [Compound B4aS]							MIC50 [5]: 16 µg/mL (≈ 46.1 µM); MIC90 [5]: 32 µg/mL (≈ 92.1 µM); MIC range [5]: 8 to 32 µg/mL; MIC50 [6]: 2 µg/mL; MIC90 [6]: 4 µg/mL; MIC-range [6]: 0.5 to 8 µg/mL
CNC(=S)NC[C@@H]1CN(c2ccc(-c3nc(C)no3)c(F)c2)C(=O)O1 [Compound B4bR]							MIC50 [5]: >128 µg/mL; MIC90 [5]: >128 µg/mL; MIC50 [6]: >128 µg/mL; MIC90 [6]: >128 µg/mL
CNC(=S)NC[C@H]1CN(c2ccc(-c3nc(C)no3)c(F)c2)C(=O)O1 [Compound B4bS]							MIC50 [5]: 8 µg/mL (≈ 21.9 µM); MIC90 [5]: 8 µg/mL (≈ 21.9 µM); MIC50 [6]: 2 µg/mL; MIC90 [6]: 4 µg/mL; MIC-range [6]: 0.5 to 8 µg/mL
